Assay results: US11773108B2, “Indene derivatives useful in treating pain and inflammation” (TARO PHARMACEUTICALS INC., priority 2018, dated 2023)
Where two headings read alike, the source gives them in different places.

Key:
[1] = Metabolism by human liver microsomes; assay type: in vitro ADME; settings: human liver microsomes 1 mg/mL protein, 10 μM, in the presence of NADPH, LC-MS/MS
Description: Representative compounds of the invention (i.e., test compounds) and the positive control, 7-ethoxycoumarin, were prepared as stock solutions at 10 mM in DMSO and eventually diluted to 10 μM in the test plate, with an appropriate amount of acetonitrile and tris HCl buffer. Final DMSO and acetonitrile concentrations were […] and 0.5% respectively. NADPH was prepared in tris HCl buffer to a stock of 10 mM. A frozen aliquot of liver microsomes was retrieved from the freezer (−80° C.) and thawed by placing the tube on wet ice. After thawing, the tubes were gently mixed and the required amount, transferred to tris HCl buffer. Test compounds or positive control were pre-incubated, separately, for 10 minutes, with liver microsomes (1 mg/mL protein), at 37° C., in 100 mM Tris HCl at pH 7.5. After preincubation the reaction was started by adding 1 mM NADPH (pre-equilibrated to 30° C.) and the reaction allowed to proceed for 60 minutes. At 60 minutes, a 50 μL aliquot was removed and quenched with 200 uL of acetonitrile containing a mixture of internal standards (Tolbutamide (500 ng/mL) and Telmistartan (500 ng/mL)) and vortexed then centrifuged at 4000 rpm for 10 minutes (Eppendorf 5810R). The supernatant was transferred to a 96 well plate for LC-MS/MS analysis.
An LC-MS/MS method was devised for the test compounds and the control, using a AB Sciex API 4000 system coupled to a NEXAR™ UHPLC (Shimadzu) system. Analytes were separated on a Phenomenex Kinetex C18 column (50×2.1 mm, 5 μm) using a gradient that was appropriate for each compound, at a flow rate of 1 ml/minute, utilizing a mobile phase of 0.1% formic acid in MILLI-Q™ water (A) and 0.1% formic acid in acetonitrile (B). The MS instrument was operated in positive mode (ESI+)/negative (ESI−). The multiple reaction monitoring (MRM) transition for test and control compounds was used for the LC-MS/MS analysis. MRM transitions for control compound 7-ethoxycoumarinm were Quadropole 1: 191.0, Quadropole 3:163.0, dwell time: 75 msec, using curtain gas settings of 5 V, ion-spray voltage of 5500 V, temperature of 50° C. and gas settings for nebulizer and auxiliary set to 30 and 40 psi, respectively. The interface heater was kept on. Entrance potential and collision cell exit potential were varied to tune for a specific compound.
Using a suitable LC-MS/MS method, the percentage of drug remaining at 60 minutes ([…]) was assessed by comparing the average analyte to internal standard area ratio at 60 minutes to the average analyte to internal standard area ratio at 0 time control, as a percentage, from a 5 to 10 μL sample injection.
According to the above assay, the test compounds listed in Table 7 below were active in the Human liver microsome assay at 10 μM and the % of drug remaining after 60 minutes (PDR60), in the presence of NADPH, was assessed by LC-MS/MS. Average PDR60 for the standard compound, 7-ethoxycoumarin was <=65% in the presence of NADPH. Scoring for the test compounds, in the presence of NADPH, was as follows: “A” represents a PDR60 of 81 to 100%, “B” represents a PDR60 of 61 to 80%, “C” represents a PDR60 of 31 to 60% and “D” represents a PDR60 of 0 to 30%.

[2] = system: rat dorsal root ganglion (DRG) cells; assay: Rat dorsal root ganglion (DRG) excitability response to electrical field stimulation; assay type: cell-based; settings: adult rat DRG cells
Description: Rat Dorsal Root Ganglion Excitability Response of Representative Compounds Dorsal root ganglions (DRGs) were dissected from adult rats. The tissue was processed, and cells were seeded into cell culture plates (48 center wells of one quadrant in 384-well plates) and cultured for 2 days prior to Electrical field stimulation (EFS). To visualize the neuronal excitability response, intracellular Ca^+2 transients were monitored using the Ca^+2 indicator, Ca5. Ca5 was added to the cultures 1 h prior to EFS. Representative compounds of the invention (i.e., test compounds) and reference compound, tetracaine, were added in concentration-response format encompassing six concentrations, performed in duplicate. The highest concentration tested was typically 30 μM with 1 in 3 dilutions generating the subsequent concentrations.
Effects on DRG excitability by the test compounds and standard were evaluated using four EFS protocols as disclosed in Table 2.
Experimental results were performed using two seperate sets of plates using separate test compound and standard dilutions, to provide n=2. In the first set of experiments, compounds were added 24 h prior to EFS to increase the possibility to also detect more long-term compound effects. In the second set of experiments the compounds were added directly prior to EFS. Excitability response to EFS was analyzed as the average fluorescence ratio (peak/baseline) change per well. All plates were evaluated using high content imaging equipment post-EFS, imaging the Ca5 background staining to detect any possibile compound-related toxic effects.
Average response by the reference compound, tetracaine, was 4.05 μM.

[3] = Ca5 Ca2+ indicator, six concentrations, highest typically 30 μM, read-out: Scoring: EC50, modulation of rat DRG excitability

Row | SMILES | Scoring: % of drug remaining after 60 minutes (PDR60) [1] | EC50 [2, 3] [µM] | EC50 ([2]; reference compound, read-out: Average response (rat DRG excitability)) [µM]
1 | C=C1CC[C@H]2[C@H](CN)[C@@H]([C@@]3(C)Cc4cnn(-c5ccc(F)cc5)c4C[C@@H]3CO)CC[C@]12C [Ia-12, ((5R,6S)-5-((3aS,4R,5S,7aS)-4-(aminomethyl)-7a-methyl-1-methyleneoctahydro-1H-inden-5-yl)-1-(4-fluorophenyl)-5-methyl-4,5,6,7-tetrahydro-1H-indazol-6-yl)methanol] | D (“D” represents a PDR60 of 0 to 30%) | < 2 | 
2 | C=C1CC[C@H]2[C@H](CN)[C@@H]([C@@]3(C)Cc4cnn(-c5ccc(C(=O)c6ccccc6)cc5)c4C[C@@H]3CO)CC[C@]12C [Ia-20, (4-((5R,6S)-5-((3aS,4R,5S,7aS)-4-(aminomethyl)-7a-methyl-1-methyleneoctahydro-1H-inden-5-yl)-6-(hydroxymethyl)-5-methyl-4,5,6,7-tetrahydro-1H-indazol-1-yl)phenyl)(phenyl)methanone] | B (“B” represents a PDR60 of 61 to 80%) | < 2 | 
3 | C=C1CC[C@H]2[C@H](CN)[C@@H]([C@@]3(C)Cc4cnn(-c5ccc(F)c(F)c5)c4C[C@@H]3CO)CC[C@]12C [Ia-22, ((5R,6S)-5-((3aS,4R,5S,7aS)-4-(aminomethyl)-7a-methyl-1-methyleneoctahydro-1H-inden-5-yl)-1-(3,4-difluorophenyl)-5-methyl-4,5,6,7-tetrahydro-1H-indazol-6-yl)methanol] | D (“D” represents a PDR60 of 0 to 30%) | < 2 | 
4 | C=C1CC[C@H]2[C@H](CN)[C@@H]([C@@]3(C)Cc4cnn(-c5ncc(F)cn5)c4C[C@@H]3CO)CC[C@]12C [Ia-26, ((5R,6S)-5-((3aS,4R,5S,7aS)-4-(aminomethyl)-7a-methyl-1-methyleneoctahydro-1H-inden-5-yl)-1-(5-fluoropyrimidin-2-yl)-5-methyl-4,5,6,7-tetrahydro-1H-indazol-6-yl)methanol] | D (“D” represents a PDR60 of 0 to 30%) | 6 to 15 | 
5 | C=C1CC[C@H]2[C@H](CN)[C@@H]([C@@]3(C)Cc4cn(-c5ncc(F)cn5)nc4C[C@@H]3CO)CC[C@]12C [Ia-27, ((5R,6S)-5-((3aS,4R,5S,7aS)-4-(aminomethyl)-7a-methyl-1-methyleneoctahydro-1H-inden-5-yl)-2-(5-fluoropyrimidin-2-yl)-5-methyl-4,5,6,7-tetrahydro-2H-indazol-6-yl)methanol] | C (“C” represents a PDR60 of 31 to 60%) | 6 to 15 | 
6 | C[C@H]1CC[C@H]2[C@H](CN)[C@@H]([C@@]3(C)Cc4cnn(-c5ccc(F)cc5)c4C[C@@H]3CO)CC[C@]12C [Ia-47, ((5R,6S)-5-((1S,3aS,4S,5S,7aR)-4-(aminomethyl)-1,7a-dimethyloctahydro-1H-inden-5-yl)-1-(4-fluorophenyl)-5-methyl-4,5,6,7-tetrahydro-1H-indazol-6-yl)methanol] |  | < 2 | 
7 | COc1ccc(Cn2cc3c(n2)C[C@H](CO)[C@@](C)([C@H]2CC[C@]4(C)[C@@H](C)CC[C@H]4[C@@H]2CN)C3)cc1 [Ia-52, ((5R,6S)-5-((1S,3aS,4S,5S,7aR)-4-(aminomethyl)-1,7a-dimethyloctahydro-1H-inden-5-yl)-2-(4-methoxybenzyl)-5-methyl-4,5,6,7-tetrahydro-2H-indazol-6-yl)methanol] | A (“A” represents a PDR60 of 81 to 100%) | < 2 | 
8 | CCCCNc1ccc(C(=O)OCCN(C)C)cc1 [tetracaine, reference compound] |  |  | 4.05

The next lines start with results.

Row | Scoring: % of drug remaining after 60 minutes (PDR60) [1] | SMILES | EC50 [2, 3] [µM] | EC50 ([2]; reference compound, read-out: Average response (rat DRG excitability)) [µM]
9 | B (“B” represents a PDR60 of 61 to 80%) | C=C1CC[C@H]2[C@H](CN)[C@@H]([C@@]3(C)Cc4cn(-c5ccc(OC)cc5)nc4C[C@@H]3CO)CC[C@]12C [Ia-15, ((5R,6S)-5-((3aS,4R,5S,7aS)-4-(aminomethyl)-7a-methyl-1-methyleneoctahydro-1H-inden-5-yl)-2-(4-methoxyphenyl)-5-methyl-4,5,6,7-tetrahydro-2H-indazol-6-yl)methanol] | 6 to 15 | 
10 | B (“B” represents a PDR60 of 61 to 80%) | C=C1CC[C@H]2[C@H](CN)[C@@H]([C@@]3(C)Cc4cnn(-c5ccc(Oc6ccc(F)cc6)cc5)c4C[C@@H]3CO)CC[C@]12C [Ia-24, ((5R,6S)-5-((3aS,4R,5S,7aS)-4-(aminomethyl)-7a-methyl-1-methyleneoctahydro-1H-inden-5-yl)-1-(4-(4-fluorophenoxy)phenyl)-5-methyl-4,5,6,7-tetrahydro-1H-indazol-6-yl)methanol] | < 2 | 
11 | B (“B” represents a PDR60 of 61 to 80%) | C=C1CC[C@H]2[C@H](CN)[C@@H]([C@@]3(C)Cc4cnn(-c5ccc(Oc6ccccc6)cc5)c4C[C@@H]3CO)CC[C@]12C [Ia-28, ((5R,6S)-5-((3aS,4R,5S,7aS)-4-(aminomethyl)-7a-methyl-1-methyleneoctahydro-1H-inden-5-yl)-5-methyl-1-(4-phenoxyphenyl)-4,5,6,7-tetrahydro-1H-indazol-6-yl)methanol] | < 2 | 
12 | C (“C” represents a PDR60 of 31 to 60%) | C=C1CC[C@H]2[C@H](CN)[C@@H]([C@@]3(C)Cc4cn(-c5ccc(Oc6ccccc6)cc5)nc4C[C@@H]3CO)CC[C@]12C [Ia-29, ((5R,6S)-5-((3aS,4R,5S,7aS)-4-(aminomethyl)-7a-methyl-1-methyleneoctahydro-1H-inden-5-yl)-5-methyl-2-(4-phenoxyphenyl)-4,5,6,7-tetrahydro-2H-indazol-6-yl)methanol] | < 2 | 
13 | A (“A” represents a PDR60 of 81 to 100%) | C=C1CC[C@H]2[C@H](CN)[C@@H]([C@@]3(C)Cc4cnn(-c5ccc(Oc6ccc(C(=O)O)cc6)cc5)c4C[C@@H]3CO)CC[C@]12C [Ia-36, 4-(4-((5R,6S)-5-((3aS,4R,5S,7aS)-4-(aminomethyl)-7a-methyl-1-methyleneoctahydro-1H-inden-5-yl)-6-(hydroxymethyl)-5-methyl-4,5,6,7-tetrahydro-1H-indazol-1-yl)phenoxy)benzoic acid] | > 15 | 
